Drawing on patent US8293729B2 (Boehringer Ingelheim International GmbH, priority 2009, dated 2012), this text covers activation and EC50 for 55 molecules.

Each structure is given as a SMILES string. Bounds are passed on as bounds.

The first assay deals with T1, human GPR119 receptor (Homo sapiens, UniProt Q8TDV5, S329A/T327A).
T1 construct: N-terminal leader […]; expressed in transfected cells
T1 sequence (Q8TDV5 with tags, fused parts or gaps T327A/S329A): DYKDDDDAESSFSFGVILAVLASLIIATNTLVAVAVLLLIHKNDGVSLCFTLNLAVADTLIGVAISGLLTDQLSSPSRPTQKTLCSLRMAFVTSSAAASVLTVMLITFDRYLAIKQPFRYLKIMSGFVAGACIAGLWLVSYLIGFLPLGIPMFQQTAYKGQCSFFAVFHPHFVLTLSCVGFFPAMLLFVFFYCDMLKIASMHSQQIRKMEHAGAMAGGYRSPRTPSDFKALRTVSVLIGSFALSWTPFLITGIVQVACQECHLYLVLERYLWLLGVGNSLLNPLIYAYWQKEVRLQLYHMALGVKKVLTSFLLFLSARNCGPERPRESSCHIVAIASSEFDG
As to the kind of experiment: cAMP assay (LANCE cAMP-384) in HEK293 cells stably expressing mutant human GPR119 receptor. In kind it is cell-based. The settings on record: HEK293, 20 min; 10 μM; the 30th table; read-out: stimulation in % at 10 μM. In a few lines:
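Agonist EC50 came from nonlinear regression over 12 concentrations (30 μM–100 pM), with % stimulation at 10 μM where no EC50 was obtained. Cells: stable HEK293 with mutant human GPR119 (T327A/S329A), 20 min compound at 37° C; cAMP read by LANCE kit with standard curve.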
Take `CC(C)OC(=O)N1CCC(ON=C2CCN(c3ncc(CN4CCCC4=O)cc3F)CC2)CC1` [Example 54-4]: the activation at 10 µM was 93%.

The same assay, now with this note: HEK293, 20 min; single concentration 10 μM; given where no EC50 value could be determined; read-out: % stimulation at 10 μM.
In the case of `CC(C)OC(=O)N1CCC(ON=C2CCN(c3cc(Br)ccn3)CC2)CC1` [Example 2-67], the activation at 10 µM came out at 54%.

The same assay, now with this note: cAMP accumulation, HEK293 cells stably expressing mutant human GPR119; read-out: EC50.
On to `CC(C)OC(=O)N1CCC(ON=C2CCN(c3nc(Cl)ncc3Cl)CC2)CC1` [Example 2-49], for which the EC50 stood at 170 nM.
Take `CC(=O)c1cc(F)c(N2CCC(=NOC3CCN(C(=O)OC(C)C)CC3)CC2)cc1F` [Example 2-23]: the EC50 amounted to 375 nM.
For `CC(C)OC(=O)N1CCC(ON=C2CCN(c3cc(F)ccc3C=O)CC2)CC1` [Example 2-19], the EC50 is 345 nM.
On the same count and under the same terms, under `Cc1cc(C=O)ccc1N1CCC(=NOC2CCN(C(=O)OC(C)C)CC2)CC1` [Example 2-29] stands 3170 nM; under `CC(C)OC(=O)N1CCC(ON=C2CCN(c3cc(F)c(Cn4ccnn4)cc3F)CC2)CC1` [Example 14-12], 32 nM; under `CC(C)OC(=O)N1CCC(ON=C2CCN(c3cc(F)c(-n4cncn4)cc3F)CC2)CC1` [Example 22-4], 33 nM.
In the case of `CSc1nc(N2CCC(=NOC3CCN(C(=O)OC(C)C)CC3)CC2)ncc1Br` [Example 2-55], the EC50 is over 10000 nM.
The same measure, in the same setting: under `CC(C)OC(=O)N1CCC(ON=C2CCN(c3ncc([N+](=O)[O-])s3)CC2)CC1` [Example 2-13] stands 5110 nM; under `Cc1nnn(Cc2cc(F)c(N3CCC(=NOC4CCN(C(=O)OC(C)C)CC4)CC3)cc2F)n1` [Example 14-16], 256 nM; under `CC(C)OC(=O)N1CCC(ON=C2CCN(c3cc(F)c(/C=C/C(=O)O)cc3F)CC2)CC1` [Example 40-1, 4-{1-[4-((E)-2-Carboxy-vinyl)-2,5-difluoro-phenyl]-piperidin-4-ylideneaminooxy}-piperidine-1-carboxylic acid isopropyl ester], 2570 nM.
As to `CC(C)OC(=O)N1CCC(ON=C2CCN(c3ccc(S(C)(=O)=O)cc3F)CC2)CC1` [Example 2-1, 4-[1-(2-Fluoro-4-methanesulfonyl-phenyl)-piperidin-4-ylideneaminooxy]-piperidine-1-carboxylic acid isopropyl ester], the EC50 was found to be 47 nM.
Same read-out and setting: under `Cc1cc(N2CCC(=NOC3CCN(C(=O)OC(C)C)CC3)CC2)c(F)cc1C(N)=O` [Example 2-76] stands 534 nM; under `Cc1ccsc1-c1cc(F)c(N2CCC(=NOC3CCN(C(=O)OC(C)C)CC3)CC2)cc1F` [Example 27-24], 329 nM; under `Cc1ccc(-c2cc(F)c(N3CCC(=NOC4CCN(C(=O)OC(C)C)CC4)CC3)cc2F)nc1` [Example 27-26], 861 nM.
Take `CC(C)OC(=O)N1CCC(ON=C2CCN(c3ccc(S(C)(=O)=O)cc3)CC2)CC1` [Example 2-16]: the EC50 came out at 328 nM.
Still for that read-out and setting: under `CC(C)OC(=O)N1CCC(ON=C2CCN(c3cc(F)c(Cn4cccc5ncnc4-5)cc3F)CC2)CC1` [Example 14-7] stands 713 nM; under `CC(C)OC(=O)N1CCC(ON=C2CCN(c3ccc(C=O)cc3Cl)CC2)CC1` [Example 2-31], 1250 nM; under `CC(C)OC(=O)N1CCC(ON=C2CCN(c3nccc(N(C)C)n3)CC2)CC1` [Example 2-44], over 10000 nM.
On the same count and under the same terms, under `CC(C)OC(=O)N1CCC(ON=C2CCN(c3ccncc3)CC2)CC1` [Example 2-9] stands over 10000 nM; under `CC(C)OC(=O)N1CCC(ON=C2CCN(c3ncc4c(n3)CCN(S(C)(=O)=O)C4)CC2)CC1` [Example 59b, 4-[1-(6-Methanesulfonyl-5,6,7,8-tetrahydro-pyrido[4,3-d]pyrimidin-2-yl)-piperidin-4-ylideneaminooxy]-piperidine-1-carboxylic acid isopropyl ester], 328 nM.
On the same count and under the same terms, then `CC(C)OC(=O)N1CCC(ON=C2CCN(c3cc(F)c(CO)cc3F)CC2)CC1` [Example 10-1, 4-[1-(2,5-Difluoro-4-hydroxymethyl-phenyl)-piperidin-4-ylideneaminooxy]-piperidine-1-carboxylic acid isopropyl ester], with 9 nM.
With `CC(C)OC(=O)N1CCC(ON=C2CCN(c3ccc(C=O)c(F)c3)CC2)CC1` [Example 2-20], the EC50 turned out to be 703 nM.
Still for that read-out and setting: under `Cc1noc(C)c1-c1cc(F)c(N2CCC(=NOC3CCN(C(=O)OC(C)C)CC3)CC2)cc1F` [Example 27-2] stands over 10000 nM.

Still in this assay, the particulars now being: the 15th table; read-out: EC50.
On to `CNCCN(C)C(=O)c1cc(F)c(N2CCC(=NOC3CCN(C(=O)OC(C)C)CC3)CC2)cc1F` [Example 29-5], for which the EC50 was found to be 215 nM.
On the same count and under the same terms, under `COCCNC(=O)c1cc(F)c(N2CCC(=NOC3CCN(C(=O)OC(C)C)CC3)CC2)cc1F` [Example 29-12] stands 12 nM.

The assay is the same for the next values; noted with them: the 19th table; unit inferred; read-out: EC 50.
As to `CCc1cnc(N2CCC(ON=C3CCN(c4cc(F)c(C(=O)N5CCCNCC5)cc4F)CC3)CC2)nc1` [Example 29-114], the EC50 amounted to 392 nM.
`CCc1cnc(N2CCC(ON=C3CCN(c4cc(F)c(C(=O)NCC5CNCCO5)cc4F)CC3)CC2)nc1` (stereo not shown) [Example 29-113]: the EC50 worked out at 26 nM.
On to `CCc1cnc(N2CCC(ON=C3CCN(c4cc(F)c(C(=O)N5CCC(CN)CC5)cc4F)CC3)CC2)nc1` [Example 29-125], for which the EC50 is 168 nM.
With `CCc1cnc(N2CCC(ON=C3CCN(c4cc(F)c(C(=O)N5CCNC[C@@H]5C)cc4F)CC3)CC2)nc1` [Example 29-110], the EC50 was determined as 256 nM.

The same assay, now with this note: the 30th table; read-out: EC50.
On to `CC(C)OC(=O)N1CCC(ON=C2CCN(c3ncc(Cn4ccnn4)cc3F)CC2)CC1` [Example 54-2], for which the EC50 was found to be 1060 nM.

The assay is the same for the next values; noted with them: the 32nd table; read-out: EC50.
In the case of `CS(=O)(=O)c1ccc(N2CCC(=NOC3CCN(c4ccc(C(F)(F)F)cn4)CC3)CC2)c(F)c1` [Example 63-14], the EC50 amounted to 495 nM.
Consider `CS(=O)(=O)c1ccc(N2CCC(=NOC3CCN(c4nccc(C(F)(F)F)n4)CC3)CC2)c(F)c1` [Example 63-11], for which the EC50 is over 10000 nM.
As to `CS(=O)(=O)c1ccc(N2CCC(=NOC3CCN(c4ccncc4)CC3)CC2)c(F)c1` [Example 63-4], the EC50 was over 10000 nM.

The same assay, now with this note: the 33rd table; read-out: EC50.
On to `CC#CCOC(=O)N1CCC(ON=C2CCN(c3ccc(S(C)(=O)=O)cc3F)CC2)CC1` [Example 64-4], for which the EC50 is 152 nM.
For `CS(=O)(=O)c1ccc(N2CCC(=NOC3CCN(C(=O)OCC4CNCCO4)CC3)CC2)c(F)c1` (stereo not shown) [Example 64-38], the EC50 is over 10000 nM.
As to `CS(=O)(=O)c1ccc(N2CCC(=NOC3CCN(C(=O)OCCC4CC4)CC3)CC2)c(F)c1` [Example 64-39], the EC50 came to 127 nM.
In the case of `CS(=O)(=O)c1ccc(N2CCC(=NOC3CCN(C(=O)OCC4CC4)CC3)CC2)c(F)c1` [Example 64-2], the EC50 worked out at 101 nM.
Turning to `CN(C)CCCCOC(=O)N1CCC(ON=C2CCN(c3ccc(S(C)(=O)=O)cc3F)CC2)CC1` [Example 64-21], the EC50 is over 10000 nM.
On the same count and under the same terms, then `CS(=O)(=O)c1ccc(N2CCC(=NOC3CCN(C(=O)OCCN4CCOCC4)CC3)CC2)c(F)c1` [Example 64-43], with over 10000 nM.

Still in this assay, the particulars now being: the 34th table, compounds 65-1 to 65-24; read-out: EC50.
For the molecule `CS(=O)(=O)c1ccc(N2CCC(=NOC3CCN(CC(=O)Nc4ccccc4)CC3)CC2)c(F)c1` [Example 65-2], the EC50 is over 10000 nM.
Still for that read-out and setting: then `C=C(C)OC(=O)N1CCC(ON=C2CCN(c3ccc(S(C)(=O)=O)cc3F)CC2)CC1` [Example 65-15], with 64 nM; and `CC(C)NC(=O)N1CCC(ON=C2CCN(c3ccc(S(C)(=O)=O)cc3F)CC2)CC1` [Example 65-8], with over 10000 nM.

The assay is the same for the next values; noted with them: the 36th table, compounds 66-1 to 66-51; read-out: EC50.
For the molecule `Cc1nc(CN2CCC(ON=C3CCN(c4ccc(S(C)(=O)=O)cc4F)CC3)CC2)cs1` [Example 66-14], the EC50 is over 10000 nM.
As to `CC(C)CCN1CCC(ON=C2CCN(c3ccc(S(C)(=O)=O)cc3F)CC2)CC1` [Example 66-23], the EC50 is over 10000 nM.
Consider `Cc1c(CN2CCC(ON=C3CCN(c4ccc(S(C)(=O)=O)cc4F)CC3)CC2)cnn1C` [Example 66-7], for which the EC50 was over 10000 nM.
Take `CS(=O)(=O)c1ccc(N2CCC(=NOC3CCN(Cc4ccccc4C#N)CC3)CC2)c(F)c1` [Example 66-19]: the EC50 was over 10000 nM.
The same measure, in the same setting: then `COc1ccc(CN2CCC(ON=C3CCN(c4ccc(S(C)(=O)=O)cc4F)CC3)CC2)c(F)c1` [Example 66-50], with 1010 nM.
With `CS(=O)(=O)c1ccc(N2CCC(=NOC3CCN(Cc4ccncc4)CC3)CC2)c(F)c1` [Example 66-4], the EC50 is over 10000 nM.

The same assay, now with this note: the 37th table, compounds 66-52 to 66-64; read-out: EC50.
With `CCCCc1ccc(CN2CCC(ON=C3CCN(c4cc(F)c(S(C)(=O)=O)cc4F)CC3)CC2)cc1` [Example 66-57], the EC50 was 29 nM.
On to `CCc1ccc(C(C)N2CCC(ON=C3CCN(c4cc(F)c(S(C)(=O)=O)cc4F)CC3)CC2)cc1` (stereo not shown) [Example 66-58], for which the EC50 came to 72 nM.

Still in this assay, the particulars now being: the 43rd table, compounds 75-1 to 75-38; read-out: EC50.
As to `CC(C)OC(=O)N1CCC(ON=C2CCN(c3cc(F)c(CC(=O)N4CCCCC4CN4CCOCC4)cc3F)CC2)CC1` (stereo not shown) [Example 75-31], the EC50 was found to be 192 nM.
`CC(C)OC(=O)N1CCC(ON=C2CCN(c3cc(F)c(CC(=O)N4CCCC(CN(C)C)C4)cc3F)CC2)CC1` (stereo not shown) [Example 75-37]: the EC50 amounted to 155 nM.

The same assay, now with this note: the 44th table, compounds 77-1 to 77-14; read-out: EC50.
In the case of `CCc1cnc(N2CCC(ON=C3CCN(c4cc(F)c(CC(N)=O)cc4F)CC3)CC2)nc1` [Example 77-4], the EC50 stood at 32 nM.
